Source: US20080255206A1, “Rxr Agonists and Antagonists, Alone or in Combination with Ppar Ligands, in the Treatment of Metabolic and Cardiovascular Diseases” (priority 2005, published 2008)
One block for each molecule: values may come before it.

Assays:
[1] = test system: myeloperoxidase (MPO) activity; test: Acute inflammation of mouse ears, MPO activity; assay type: in vivo, C57BL/6 mice; settings: TPA 0.005% alone, topical, 4 d
Procedure: (§1) […] mice of the C57BL/6 strain are used. Inflammation is induced on mouse ears with either AtRA, 9-cis RA or TPA by topical application. Inflammation is measured objectively by determination of the activity of myeloperoxidase (MPO) being directly correlated to the infiltration of polymorphonuclear white blood cells and by the determination of mRNA expression of c-jun, a protein implicated in the AP-1 transduction pathway according to known methods, see e.g. P. L. Stanley et al., Skin Pharmacol. 4, 262-271 (1991) (MPO assay), N. Basset-Sequin et al., J. Invest. Dermatol. 94, 418-422 (1990), F. J. Rauscher et al., Cell 52, 471-480 […], P. Sassone-Corn et al., Nature 326, 507-510 (1987), and M. Pfahl, Endocr. Rev. 14, 651-658, 1993, which are incorporated by reference regarding the experimental method.
(§2) In the “acute inflammation” test, mice are treated topically (epicutaneously), orally or intraperitoneally, daily for 4 days. In the “semi chronic inflammation” test, mice are treated topically according to the schedules given below. For each experiment, a group of at least 4 mice of both sexes are used in the defined condition, regarding placebo, vehicle control, compound, topical formulation, oral formulation, dosage and concentration. The topical vehicle consists of ethanol/PEG 400/water (3:1:1).
The anti-inflammatory effect of topical RXR antagonist compound 15 is tested by determination of myeloperoxidase activity in % of vehicle treated controls. For induction of inflammation 9-cis RA or TPA are applied topically to the skin, daily for 4 days. The RXR antagonist compound 15 (see Table 1) is administered topically one hour after the application of the inflammation inducing agent. The mice are sacrified 24 hours after the last treatment.

c-Jun mRNA expression = test: Semi chronic inflammation of mouse ears, c-Jun mRNA (northern blot); assay type: in vivo, C57BL/6 mice
Procedure: as §1
(§3) The anti-inflammatory effect of topical RXR antagonists is tested by determination of myeloperoxidase activity in % of vehicle controls. The effect of the RXR antagonist compound 15 is also compared with the well known anti-inflammatory effect of the two corticosteroids, clobetasol dipropionate and betamethasone propionate. For induction of inflammation, AtRA and TPA are applied topically to the skin and the administration of the test compounds, the RXR antagonist compound 15 and the two corticosteroids are given in the following order, according to the schedule, described in: Skin Pharmacol 1991; 4 (4): 262-271, Stanley P L. et.al.: RA or TPA is administered on days 0, 2, 4, 7 and 9, compound 15 or corticosteroids are administered twice daily on day 7, day 8 and day 9 and once on day 10 in the morning. The mice are sacrificed on day 10 in the afternoon.
In the same experiment, the expression of c-Jun mRNA is determined by northern blot and expressed in percent of the vehicle controls.

[2] = test system: myeloperoxidase (MPO) activity; test: Semi chronic inflammation of mouse ears, MPO activity; assay type: in vivo, C57BL/6 mice; settings: 11 d
Procedure: as §1, §2, §3

RXRγ = biological target: T1, RXRγ (Homo sapiens, UniProt P48443); test: Retinoid binding assay, RXRγ; design: made in house; host or cells: E. coli; settings: [3H] 9-cis retinoic acid 20 nM; read-out: Binding Affinity IC50 RXR γ
T1 sequence (P48443 1-463): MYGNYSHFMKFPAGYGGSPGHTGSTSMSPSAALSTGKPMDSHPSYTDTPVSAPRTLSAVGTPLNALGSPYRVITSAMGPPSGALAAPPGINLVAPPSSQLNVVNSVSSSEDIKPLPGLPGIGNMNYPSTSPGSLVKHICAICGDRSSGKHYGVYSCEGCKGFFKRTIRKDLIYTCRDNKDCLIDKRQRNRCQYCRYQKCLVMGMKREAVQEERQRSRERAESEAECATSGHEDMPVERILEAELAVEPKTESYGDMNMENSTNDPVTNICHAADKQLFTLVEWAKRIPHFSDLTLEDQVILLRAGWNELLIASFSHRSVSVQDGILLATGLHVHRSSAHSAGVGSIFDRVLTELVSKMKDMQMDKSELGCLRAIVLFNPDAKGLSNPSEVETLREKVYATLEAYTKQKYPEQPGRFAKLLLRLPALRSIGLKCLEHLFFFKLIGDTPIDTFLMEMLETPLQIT
Description: The DEF domains of RAR's and the full length RXR's, expressed in E.coli, are used to measure competitive retinoid binding. […] 9-cis retinoic acid (for RXR's), respectively. […] Separation of bound from free radioactivity is achieved by charcoal/dextran (RAR's) or by desalting columns (RXR's). […] Retinoid Activation Assays

humans = settings: clinical trials by other authors; cited from earlier work
[3] = TPA 0.005% + test compound 0.05%
[4] = TPA 0.005% + test compound 0.05% topical

Molecule: CCCCCCCCCCCCCC(=O)O[C@@H]1[C@@H](C)[C@@]2(O)[C@@H](C=C(CO)C[C@]3(O)C(=O)C(C)=C[C@@H]23)[C@@H]2C(C)(C)[C@]12OC(C)=O [TPA, 12-O-tetradecanoylphorbol-13-acetate]
MPO activity (% vehicle treated mice) [1]: 376 ± 72 % vehicle treated mice
c-Jun mRNA expression (% of vehicle treated mice) (c-Jun mRNA expression; TPA 0.005% alone): 163 % of vehicle treated mice
MPO activity (% vehicle treated mice) ([2]; TPA 0.005% alone, topical): 572 ± 61 % vehicle treated mice

Molecule: betamethasone propionate
c-Jun mRNA expression (% of vehicle treated mice) (c-Jun mRNA expression; [3]): 24 % of vehicle treated mice
MPO activity (% vehicle treated mice) [2, 4]: 257 ± 38 % vehicle treated mice

IC50 (RXRγ): 90 nM
Molecule: Cc1cc2c(cc1C1(c3ccc(C(=O)O)cn3)CC1)C(C)(C)CCC2(C)C [Compound 3, 6-[1-(3,5,5,8,8-Pentamethyl-5,6,7,8-tetrahydro-naphthalen-2yl)-cyclopropyl]-nicotinic acid, reference compound]
Serum lipids in clinical trials (humans) (humans): marked triglyceridemia

Molecule: CCC(=O)O[C@]1(C(=O)CCl)[C@@H](C)C[C@H]2[C@@H]3CCC4=CC(=O)C=C[C@]4(C)[C@@]3(F)[C@@H](O)C[C@@]21C
c-Jun mRNA expression (% of vehicle treated mice) (c-Jun mRNA expression; [3]): 43 % of vehicle treated mice
MPO activity (% vehicle treated mice) [2, 4]: 239 ± 43 % vehicle treated mice

Molecule: CC1=C(/C=C/C(C)=C/C=C/C(C)=C/C(=O)O)C(C)(C)CCC1 [At RA, all-trans retinoic acid]
MPO activity (% vehicle treated mice) ([2]; At RA 0.05% alone, topical): 1371 ± 345 % vehicle treated mice
